Experimental data as given in ChEMBL document CHEMBL1154999, “N-(2,2-Dimethyl-2-(2-nitrophenyl)acetyl)-4-aminocyclophosphamide as a potential bioreductively activated prodrug of phosphoramide mustard” (Bioorg Med Chem Lett, 2008).

Legend:
Type in all cases: physicochemical
[1] = Chemical stability in sodium acetate buffer assessed as half life at pH 4.0 at 37 degC
[2] = Chemical stability in sodium acetate buffer assessed as half life at pH 4.5 at 37 degC
[3] = Chemical stability in sodium acetate buffer assessed as half life at pH 5.0 at 37 degC
[4] = Chemical stability in sodium acetate buffer assessed as half life at pH 5.4 at 37 degC
[5] = Chemical stability in sodium acetate buffer assessed as half life at pH 5.6 at 37 degC
[6] = Chemical stability in sodium phosphate buffer assessed as half life at pH 6.0 at 37 degC
[7] = Chemical stability in sodium phosphate buffer assessed as half life at pH 6.5 at 37 degC
[8] = Chemical stability in sodium phosphate buffer assessed as half life at pH 7.4 at 37 degC

CC(C)(C(=O)NC1CCOP(=O)(N(CCCl)CCCl)N1)c1ccccc1N (stereo not drawn)
half-life [1]: 3.2 min
half-life [2]: 4.9 min
half-life [3]: 9.8 min
half-life [4]: 17.5 min
half-life [5]: 27.2 min
half-life [6]: 12.6 min
half-life [7]: 19.3 min
half-life [8]: 53.7 min
